Laboratory results published in patent US4680283A, “Analogs of substance P and eledoisin” (Merck & Co., Inc., priority 1986, dated 1987).

Legend:
[1] = molecular target: T1, 125I-BH-SP binding sites in rat brain cortex membranes (Rattus norvegicus, UniProt P14600); test: substance P (SP) binding assay (competition for 125I-BH-SP binding sites); conditions: peptides dissolved in DMSO
T1 construct: from tissue; host or cells: rat brain cortex membranes
Description: (§1) Representative compounds of this invention were tested in the substance P (SP) and eledoisin binding assays. The peptides were dissolved in DMSO and tested for their abilities to compete for ^125 I-BH-SP and ^125 I-BH-eledoison binding sites in rat brain cortex membranes (Cascieri and Liang, J. Biol. Chem., 258, 5158 (1983); Life Sciences, 35, 179 (1984)).
(§2) The following table summarizes the IC50 data obtained in both assay systems as well as showing the IC50 ratio for each peptide in the SP and eledoisin binding assays.

[2] = molecular target: T2, 125I-BH-eledoisin binding sites in rat brain cortex membranes (Rattus norvegicus, UniProt P16177); test: eledoisin binding assay (competition for 125I-BH-eledoisin binding sites); conditions: peptides dissolved in DMSO
T2 construct: from tissue; host or cells: rat brain cortex membranes
T2 sequence (P16177 1-452): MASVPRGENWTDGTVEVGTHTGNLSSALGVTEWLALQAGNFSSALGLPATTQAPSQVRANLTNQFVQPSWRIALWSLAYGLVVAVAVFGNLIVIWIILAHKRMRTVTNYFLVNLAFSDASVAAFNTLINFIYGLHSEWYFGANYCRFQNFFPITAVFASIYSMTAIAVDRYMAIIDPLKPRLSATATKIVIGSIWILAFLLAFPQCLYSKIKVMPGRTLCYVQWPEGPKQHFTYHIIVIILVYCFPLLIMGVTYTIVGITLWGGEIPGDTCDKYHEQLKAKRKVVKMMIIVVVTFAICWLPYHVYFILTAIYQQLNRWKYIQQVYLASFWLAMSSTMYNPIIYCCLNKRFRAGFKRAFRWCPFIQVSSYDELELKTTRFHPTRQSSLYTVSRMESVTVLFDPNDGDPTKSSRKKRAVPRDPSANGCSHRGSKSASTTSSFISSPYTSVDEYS
Description: as §1, §2

T1 sequence (P14600 whole entry): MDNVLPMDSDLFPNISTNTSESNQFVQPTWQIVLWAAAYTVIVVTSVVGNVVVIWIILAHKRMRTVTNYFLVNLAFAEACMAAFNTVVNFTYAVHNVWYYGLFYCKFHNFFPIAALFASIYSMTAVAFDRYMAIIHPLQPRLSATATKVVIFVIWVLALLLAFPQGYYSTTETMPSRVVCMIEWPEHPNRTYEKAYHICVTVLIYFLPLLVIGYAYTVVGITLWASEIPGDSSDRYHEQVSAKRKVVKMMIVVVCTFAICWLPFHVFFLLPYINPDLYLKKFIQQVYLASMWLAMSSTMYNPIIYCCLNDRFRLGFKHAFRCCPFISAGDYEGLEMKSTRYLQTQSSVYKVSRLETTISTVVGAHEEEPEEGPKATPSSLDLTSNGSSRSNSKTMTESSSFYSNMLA

| SMILES | IC50 [1] [µM] | IC50 [2] [µM] |
| --- | --- | --- |
| CSCC[C@H](NC(=O)[C@H](CC(C)C)N1CC[C@H](NC(=O)[C@H](Cc2ccccc2)NC(=O)[C@H](Cc2ccccc2)NC(=O)[C@@H]2CCC(=O)N2)C1=O)C(N)=O [L-363,232] | 60 | 32 |
| CSCC[C@H](NC(=O)[C@H](CC(C)C)N1CC[C@@H](NC(=O)[C@H](Cc2ccccc2)NC(=O)[C@H](Cc2ccccc2)NC(=O)[C@@H]2CCC(=O)N2)C1=O)C(N)=O [L-363,851, Pyroglutamyl-phenylalanyl-phenylalanyl-[(R)-3-amino-2-oxo-1-pyrrolidine-(S)-4-methyl-2-pentanoyl]-methionine amide] | 13 | 0.014 |
